The assay deals with T1, Ba/F3 Axl (Homo sapiens, UniProt P30530).
T1 sequence (P30530 1-894): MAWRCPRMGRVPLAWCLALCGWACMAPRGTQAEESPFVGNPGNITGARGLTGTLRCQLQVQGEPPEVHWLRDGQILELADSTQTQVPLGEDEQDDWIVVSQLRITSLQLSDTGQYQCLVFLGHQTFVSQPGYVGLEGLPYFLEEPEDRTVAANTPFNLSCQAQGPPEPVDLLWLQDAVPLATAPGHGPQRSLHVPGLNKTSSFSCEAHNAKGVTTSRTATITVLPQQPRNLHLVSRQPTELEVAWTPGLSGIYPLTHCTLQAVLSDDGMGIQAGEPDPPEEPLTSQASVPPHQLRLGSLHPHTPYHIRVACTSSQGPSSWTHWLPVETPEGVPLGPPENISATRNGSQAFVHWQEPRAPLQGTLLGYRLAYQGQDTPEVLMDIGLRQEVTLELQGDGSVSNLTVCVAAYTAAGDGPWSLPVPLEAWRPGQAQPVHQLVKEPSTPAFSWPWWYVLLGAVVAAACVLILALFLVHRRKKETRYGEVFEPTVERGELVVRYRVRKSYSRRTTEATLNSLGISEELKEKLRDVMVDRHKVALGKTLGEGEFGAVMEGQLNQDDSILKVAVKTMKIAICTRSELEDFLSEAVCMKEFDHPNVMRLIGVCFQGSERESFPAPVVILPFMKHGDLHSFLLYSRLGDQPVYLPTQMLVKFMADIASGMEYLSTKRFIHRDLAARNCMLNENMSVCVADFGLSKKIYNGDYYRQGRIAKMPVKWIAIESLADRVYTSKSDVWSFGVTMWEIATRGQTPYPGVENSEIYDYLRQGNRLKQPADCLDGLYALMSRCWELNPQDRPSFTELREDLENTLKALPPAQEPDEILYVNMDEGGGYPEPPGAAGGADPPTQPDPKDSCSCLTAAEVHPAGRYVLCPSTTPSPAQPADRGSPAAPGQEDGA
In words: Proliferation suppression rate using mouse pro-B cell line (Ba/F3 Axl) stably expressing Axl (CellTiter-Glo). It is filed as cell-based. As to conditions: Ba/F3 Axl cells, 48 hours, read-out: IC50 value of proliferation suppression, Ba/F3 Axl. The method, then: A 0.1 mmol/L DMSO solution of the test compound was dispensed into a 96-well plate, and a 3-fold dilution series was prepared using DMSO. DMSO solutions of test compounds, having various concentrations, were further 500-fold diluted with a RPMI1640 medium (containing 10% HI-FBS, 1% penicillin) and a diluted solution of the test compound having […] with respect to the final concentration was prepared. In each well of the 96-well plate (BD Biosciences) for measurement, 50 μL of a RPMI medium was added to the Blank group, 50 μL of a RPMI medium containing 0.2% DMSO was added to the medium group, and 50 μL of the diluted solution of the test compound was added to the test compound group, respectively. Ba/F3 Axl was diluted with a medium to have a density of 2×10^5 cells/mL to prepare a cell suspension. In each well of the 96-well plate for measurement, 50 μL each of the RPMI medium was added to the Blank group, and 50 μL each of the cell suspension to the medium group and the test compound group, respectively, and the groups were stood still at 37° C. at 5% CO2 for 48 hours. After standing still, Relative Light Unit (RLU) was measured by using CELLTITER-GLO (registered trademark) LUMINESCENT CELL VIABILITY ASSAY (Promega). The measurement was carried out according to the attached instruction. To each well, 100 μL each of light-emitting solution was added. The plate was stirred at room temperature for 3 min and then stool still at room temperature with light shielded for 10 min, and RLU was measured by using Microplate Reader (SpectraMax M5e, Molecular Devices). The average values of RLU of the Blank group and the medium group were respectively calculated, and the proliferation suppression rate of the test compound group was calculated. Proliferation suppression rate (%)={1−(RLU of test compound group−A)/(B−A)}×100 [Math. 2] A: average value of RLU of Blank group B: average value of RLU of medium group
A value of 50% inhibition rate (IC50 value) of the test compound was calculated from the inhibition curve based on the inhibition rate in each concentration of the test compound.
(ATP-based viability assays read luminescence as a measure of living cells.)

This note sets out measurements from patent publication US10208034B2, “Quinoline derivative” (ONO PHARMACEUTICAL CO., LTD., priority 2014, dated 2019).

SMILES strings stand for the structures.

As to `COc1cc2nccc(Oc3ccc(NC(=O)c4cc(C(C)=O)cn(-c5ccccc5)c4=O)nc3)c2cc1OC` [Example 21, 5-acetyl-N-{5-[(6,7-dimethoxy-4-quinolinyl)oxy]-2-pyridinyl}-2-oxo-1-phenyl-1,2-dihydro-3-pyridinecarboxamide], the GI50 turned out to be 0.96 nM.

On to `COc1cc2nccc(Oc3ccc(NC(=O)c4cc5ccncc5n(-c5ccccc5)c4=O)nc3)c2cc1OC` [Example 28, N-{5-[(6,7-dimethoxy-4-quinolinyl)oxy]-2-pyridinyl}-2-oxo-1-phenyl-1,2-dihydro-1,7-naphthyridine-3-carboxamide], for which the GI50 turned out to be 0.99 nM.

`COc1cc2nccc(Oc3ccc(NC(=O)c4c5c(cn(-c6ccccc6)c4=O)C(=O)CCC5)nc3)c2cc1OC` [Example 42, N-{5-[(6,7-dimethoxy-4-quinolinyl)oxy]-2-pyridinyl}-3,8-dioxo-2-phenyl-2,3,5,6,7,8-hexahydro-4-isoquinolinecarboxamide]: the GI50 was 4.2 nM.

`COc1cc2nccc(Oc3ccc(NC(=O)c4cc5c(n(-c6ccccc6)c4=O)CCCNC5=O)nc3)c2cc1OC` [Example 66, N-{5-[(6,7-dimethoxy-4-quinolinyl)oxy]-2-pyridinyl}-2,5-dioxo-1-phenyl-2,5,6,7,8,9-hexahydro-1H-pyrido[3,2-c]azepine-3-carboxamide]: the GI50 came to 5.7 nM.
